Patent US9758538B2, “Pyrimidine derivatives” (PFIZER INC., priority 2015, dated 2017)

Target: truncated PI3Kα (p110α/iSH2 p85α), PI3KA_Act (Homo sapiens (Human), UniProt P42336)
Assay: PI3Kα biochemical kinase assay, fluorescence polarization format (PI3KA_Act)
Details: 0.5 nM p110α/iSH2 p85, 1 mM ATP, 30 μM PIP2, 15-min preincubation; Morrison equation fit; read-out: PI3KA_Act Ki
Experimental: Enzyme Production for Biochemical Assay: p110α-iSH2 p85α Complex (Full Length p110α and p85α iSH2)(“PI3KA Act”)
Gene encoding p110α subunit was subcloned into polyhedrine promoter while gene encoding p85α niSH2 domains was subcloned into p10 promoter. […] Recombinant baculovirus was generated using Bac-to-Bac protocol (Life Technologies, Carlsbad, Calif.). Large scale expression was conducted in Sf21 (Life Technologies, Carlsbad, Calif.) cells at a multiplicity of infection (“MOI”)=1 for 48 hours. Cells were lyzed in 50 mM Tris pH 8.0, 250 mM NaCl, 5% glycerol, 0.25 mM TCEP, and 20 mM imidazole. The p110α-niSH2 p85α complex was purified from clarified supernatant using Immobilized Metalo Affinity Chromatography (“IMAC”). The protein was eluted from the column using 50 mM Tris pH 8.0, 200 mM NaCl, 0.25 mM TCEP, and 200 mM imidazole. Following elution p110α-niSH2 p85α complex was dialyzed against 4 liters of 50 mM Tris pH 8.0, 200 mM NaCl, 0.25 mM TCEP, and 40 mM imidazole in the presence of PreScission Protease (1:70 molar ratio of Protease to Protein) and TEV protease (1:40 molar ratio protease to protein) for 16 hours at 4° C. The protein was further purified using reverse IMAC to remove cleaved histidine tag and contaminants captured during initial IMAC purification. The mixture of p110α-iSH2 p85α complex and cleaved nSH2 was recovered in reverse IMAC 40 mM imidazole flow through and 60 mM imidazole wash fractions. Those fractions were pulled together and loaded on Superdex 200 26/60 SEC column equilibrated in 25 mM Tris, pH 8.0, 100 mM NaCl, 2% glycerol, and 2 mM TCEP.
The enzymatic reactions were conducted in 50 μL volumes in 96-well plates. […] The reactions were incubated for 30 min at room temperature, stopped with EDTA pH 8 (10 mM final concentration). […] The plate was shaken for 30 minutes and fluorescence polarization values were measured on an LJL Analyst HT plate reader (Molecular Devices, Sunnyvale, Calif.).

Sequence of truncated PI3Kα (p110α/iSH2 p85α), PI3KA_Act (P42336 whole entry, the tested form may be a part): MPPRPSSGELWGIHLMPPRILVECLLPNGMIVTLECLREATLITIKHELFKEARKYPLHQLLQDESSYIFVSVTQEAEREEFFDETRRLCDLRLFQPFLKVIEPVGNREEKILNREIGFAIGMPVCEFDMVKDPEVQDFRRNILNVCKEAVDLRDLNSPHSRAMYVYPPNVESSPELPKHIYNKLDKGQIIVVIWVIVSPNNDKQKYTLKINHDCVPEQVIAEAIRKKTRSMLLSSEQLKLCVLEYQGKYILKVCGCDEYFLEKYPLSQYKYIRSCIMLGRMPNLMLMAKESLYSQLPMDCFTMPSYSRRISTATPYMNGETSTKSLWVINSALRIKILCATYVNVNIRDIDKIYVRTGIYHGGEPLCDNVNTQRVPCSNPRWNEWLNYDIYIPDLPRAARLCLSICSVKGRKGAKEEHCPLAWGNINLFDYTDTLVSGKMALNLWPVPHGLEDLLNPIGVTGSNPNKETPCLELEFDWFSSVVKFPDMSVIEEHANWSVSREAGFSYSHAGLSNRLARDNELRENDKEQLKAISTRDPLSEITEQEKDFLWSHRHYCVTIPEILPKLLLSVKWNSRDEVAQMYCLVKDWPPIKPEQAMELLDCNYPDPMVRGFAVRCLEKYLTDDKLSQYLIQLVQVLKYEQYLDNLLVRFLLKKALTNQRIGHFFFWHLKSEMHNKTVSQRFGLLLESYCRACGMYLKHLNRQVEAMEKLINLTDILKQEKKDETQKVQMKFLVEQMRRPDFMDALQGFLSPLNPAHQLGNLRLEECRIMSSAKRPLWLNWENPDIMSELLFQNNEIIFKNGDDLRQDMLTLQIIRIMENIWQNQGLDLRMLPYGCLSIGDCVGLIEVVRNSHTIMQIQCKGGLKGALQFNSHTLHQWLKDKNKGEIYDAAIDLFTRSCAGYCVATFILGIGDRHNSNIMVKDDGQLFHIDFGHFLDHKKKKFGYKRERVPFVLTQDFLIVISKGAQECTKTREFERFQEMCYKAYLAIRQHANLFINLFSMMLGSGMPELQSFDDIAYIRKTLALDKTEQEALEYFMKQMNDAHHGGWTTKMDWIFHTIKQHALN

Ki | SMILES
< 0.018 nM | Nc1ncc(-c2cc(N[C@@]3(CO)CCN(C(=O)N4CCC4)C3)nc(N3CCOCC3)n2)cn1 [Example 89, [(3S)-3-{[2′-amino-2-(morpholin-4-yl)-4,5′-bipyrimidin-6-yl]amino}-3-(hydroxymethyl)pyrrolidin-1-yl](azetidin-1-yl)methanone]
< 0.018 nM | COC(=O)N1CC[C@](CO)(Nc2nc(N3CCOC[C@@H]3C)nc(-c3cnc(N)nc3)c2F)C1 [Example 114, methyl (3S)-3-({2′-amino-5-fluoro-2-[(3S)-3-methylmorpholin-4-yl]-4,5′-bipyrimidin-6-yl}amino)-3-(hydroxymethyl)pyrrolidine-1-carboxylate]
0.627 nM | Nc1ncc(-c2nc(N3CCOCC3)nc(N[C@]3(CO)CCCN(C(=O)C4(F)CC4)C3)c2F)cn1 (single isomer, unassigned) [Example 158]
0.027 nM | CCOC(=O)N1CC[C@](CO)(Nc2nc(-c3cnc(N)nc3)nc(N3CCOCC3)n2)C1 [Example 82, ethyl (3S)-3-{[4-(2-aminopyrimidin-5-yl)-6-(morpholin-4-yl)-1,3,5-triazin-2-yl]amino}-3-(hydroxymethyl)pyrrolidine-1-carboxylate]
1.87 nM | Nc1ncc(-c2nc(N3CCOCC3)nc(N[C@]3(CO)CCCN(C(=O)C4CC4)C3)c2F)cn1 [Example 157, [(3R)-3-{[2′-amino-5-fluoro-2-(morpholin-4-yl)-4,5′-bipyrimidin-6-yl]amino}-3-(hydroxymethyl)piperidin-1-yl](cyclopropyl)methanone]
0.201 nM | CCC1(Nc2cc(-c3cnc(N)nc3)nc(N3CCOCC3)n2)CCN(C(=O)OC(C)(C)C)C1 (centres unmarked) [Example 28, tert-butyl 3-{[2′-amino-2-(morpholin-4-yl)-4,5′-bipyrimidin-6-yl]amino}-3-ethylpyrrolidine-1-carboxylate]
0.072 nM | CC(C)(C)OC(=O)N1CCC(CF)(Nc2cc(-c3cnc(N)nc3)nc(N3CCOCC3)n2)C1 (centres unmarked) [Example 110, tert-butyl 3-{[2′-amino-2-(morpholin-4-yl)-4,5′-bipyrimidin-6-yl]amino}-3-(fluoromethyl)pyrrolidine-1-carboxylate]
1.29 nM | C[C@@]1(Nc2cc(-c3cnc(N)nc3)nc(N3CCOCC3)n2)CCN(S(C)(=O)=O)C1 [Example 12, N˜6˜-[(3R)-3-methyl-1-(methylsulfonyl)pyrrolidin-3-yl]-2-(morpholin-4-yl)-4,5′-bipyrimidine-2′,6-diamine]
0.03 nM | COC(=O)N1CCCC(CO)(Nc2cc(-c3cnc(N)nc3)nc(N3CCOCC3)n2)C1 (racemic) [Example 4, methyl 3-{[2′-amino-2-(morpholin-4-yl)-4,5′-bipyrimidin-6-yl]amino}-3-(hydroxymethyl)piperidine-1-carboxylate]
0.492 nM | CC(C)(C)OC(=O)N1CCC(CO)(Oc2cc(-c3cnc(N)nc3)nc(N3CCOCC3)n2)C1 (single isomer, unassigned) [Example 9, tert-butyl 3-{[2′-amino-2-(morpholin-4-yl)-4,5′-bipyrimidin-6-yl]oxy}-3-(hydroxymethyl)pyrrolidine-1-carboxylate]

The next lines start with the compound.

SMILES | Ki
Cc1ncc(-c2cc(N[C@@]3(CO)CCN(C(=O)OC(C)(C)C)C3)nc(N3CCOCC3)n2)cc1C#N [Example 125, tert-butyl (3S)-3-{[6-(5-cyano-6-methylpyridin-3-yl)-2-(morpholin-4-yl)pyrimidin-4-yl]amino}-3-(hydroxymethyl)pyrrolidine-1-carboxylate] | 118 nM
COC(=O)N1CC[C@](CO)(Nc2cc(-c3cnc(N)nc3C(F)(F)F)nc(N3CCOCC3)n2)C1 [Example 58, methyl (3S)-3-{[2′-amino-2-(morpholin-4-yl)-4′-(trifluoromethyl)-4,5′-bipyrimidin-6-yl]amino}-3-(hydroxymethyl)pyrrolidine-1-carboxylate] | 0.2 nM
CC(C)(C)CC(=O)N1CC[C@](CO)(Nc2cc(-c3cnc(N)nc3)nc(N3CCOCC3)n2)C1 [Example 61, 1-[(3S)-3-{[2′-amino-2-(morpholin-4-yl)-4,5′-bipyrimidin-6-yl]amino}-3-(hydroxymethyl)pyrrolidin-1-yl]-3,3-dimethylbutan-1-one] | 0.054 nM
CCOC(=O)N1CC[C@](CO)(Nc2cc(-c3cnc(C)c(C#N)c3)nc(N3CCOCC3)n2)C1 [Example 128, ethyl (3S)-3-{[6-(5-cyano-6-methylpyridin-3-yl)-2-(morpholin-4-yl)pyrimidin-4-yl]amino}-3-(hydroxymethyl)pyrrolidine-1-carboxylate] | 110 nM
CCC(=O)N1CCC[C@@](CO)(Nc2nc(N3CCOCC3)nc(-c3cnc(N)nc3)c2F)C1 [Example 147, 1-[(3R)-3-{[2′-amino-5-fluoro-2-(morpholin-4-yl)-4,5′-bipyrimidin-6-yl]amino}-3-(hydroxymethyl)piperidin-1-yl]propan-1-one] | 1.9 nM
CCOC(=O)N1CC[C@](CO)(Nc2cc(-c3cnc(N)nc3)nc(N3CCOC[C@@H]3C)n2)C1 [Example 64, ethyl (3S)-3-({2′-amino-2-[(3S)-3-methylmorpholin-4-yl]-4,5′-bipyrimidin-6-yl}amino)-3-(hydroxymethyl)pyrrolidine-1-carboxylate] | < 0.018 nM
Nc1ncc(-c2cc(N[C@@]3(CO)CCN(C(=O)OCC(F)F)C3)nc(N3CCOCC3)n2)cn1 [Example 79, 2,2-difluoroethyl (3S)-3-{[2′-amino-2-(morpholin-4-yl)-4,5′-bipyrimidin-6-yl]amino}-3-(hydroxymethyl)pyrrolidine-1-carboxylate] | 0.021 nM
Nc1ncc(-c2cc(N[C@@]3(CO)CCN(C(=O)[C@@H](O)c4ccccc4)C3)nc(N3CCOCC3)n2)cn1 [Example 60, (2S)-1-[(3S)-3-{[2′-amino-2-(morpholin-4-yl)-4,5′-bipyrimidin-6-yl]amino}-3-(hydroxymethyl)pyrrolidin-1-yl]-2-hydroxy-2-phenylethanone] | 12.7 nM
CCOC(=O)N1CC[C@](CO)(Nc2cc(-c3cnc(C)nc3)nc(N3CCOCC3)n2)C1 [Example 130, ethyl (3S)-3-(hydroxymethyl)-3-{[2′-methyl-2-(morpholin-4-yl)-4,5′-bipyrimidin-6-yl]amino}pyrrolidine-1-carboxylate] | 0.83 nM
CS(=O)(=O)N1CC[C@](CO)(Nc2cc(-c3cnc(N)nc3)nc(N3CCOCC3)n2)C1 [Example 33, [(3S)-3-{[2′-amino-2-(morpholin-4-yl)-4,5′-bipyrimidin-6-yl]amino}-1-(methylsulfonyl)pyrrolidin-3-yl]methanol] | 0.3 nM
Nc1ncc(-c2nc(N3CCOCC3)nc(N[C@@]3(CO)CCCNC3)c2F)cn1 [Example 145, [(3S)-3-{[2′-amino-5-fluoro-2-(morpholin-4-yl)-4,5′-bipyrimidin-6-yl]amino}piperidin-3-yl]methanol] | 2.53 nM
COC(=O)N1CC[C@](CO)(Nc2cc(-c3cnc(N)nc3)nc(N3CCOC[C@@H]3C)n2)C1 [Example 65, methyl (3S)-3-({2′-amino-2-[(3S)-3-methylmorpholin-4-yl]-4,5′-bipyrimidin-6-yl}amino)-3-(hydroxymethyl)pyrrolidine-1-carboxylate] | < 0.018 nM
CC(C)OC(=O)N1CC[C@](CO)(Nc2cc(-c3cnc(N)nc3)nc(N3CCOCC3)n2)C1 [Example 44, propan-2-yl (3S)-3-{[2′-amino-2-(morpholin-4-yl)-4,5′-bipyrimidin-6-yl]amino}-3-(hydroxymethyl)pyrrolidine-1-carboxylate] | 0.032 nM
CCOC(=O)N1CC[C@](CO)(Nc2nc(-c3cnc(N)nc3)nc(N3CCOC[C@@H]3C)n2)C1 [Example 118, ethyl (3S)-3-({4-(2-aminopyrimidin-5-yl)-6-[(3S)-3-methylmorpholin-4-yl]-1,3,5-triazin-2-yl}amino)-3-(hydroxymethyl)pyrrolidine-1-carboxylate] | < 0.018 nM
COC(=O)N1CC[C@](CO)(Nc2cc(-c3cnc(N)nc3)nc(N3CCOCC3)n2)C1 [Example 34, methyl (3S)-3-{[2′-amino-2-(morpholin-4-yl)-4,5′-bipyrimidin-6-yl]amino}-3-(hydroxymethyl)pyrrolidine-1-carboxylate] | 0.019 nM

Same assay, conditions: PI3KA_Act Ki (nM), 0.5 nM p110α/iSH2 p85, 1 mM ATP, 30 μM PIP2, 15-min preincubation; Morrison equation fit

SMILES | Ki
C[C@H]1COCCN1c1nc(N[C@@]2(CO)CCN(C(=O)OCC(F)F)C2)c(F)c(-c2cnc(N)nc2)n1 [Example 119, 2,2-difluoroethyl (3S)-3-({2′-amino-5-fluoro-2-[(3S)-3-methylmorpholin-4-yl]-4,5′-bipyrimidin-6-yl}amino)-3-(hydroxymethyl)pyrrolidine-1-carboxylate] | < 0.018 nM
